These results are taken from patent US20250163104A1, “MACROCYCLIC IMMUNOMODULATORS” (priority 2021, published 2025).

Where a SMILES comes first, the peptide text is derived from it. Bridges are numbered along the chain shown (N, C = ends). [ ]: non-standard residue; d: D form. The star is where a group is joined. Phe(4-CH2CH2COOH) = N[C@@H](Cc1ccc(CCC(=O)O)cc1)C(=O)O; Phe(4-COOH) = N[C@@H](Cc1ccc(C(=O)O)cc1)C(=O)O; Bip = N[C@@H](Cc1ccc(-c2ccccc2)cc1)C(=O)O; Phe(3-Me) = Cc1cccc(C[C@H](N)C(=O)O)c1; h4Pal = N[C@@H](CCc1ccncc1)C(=O)O; 4Pal = N[C@@H](Cc1ccncc1)C(=O)O; Cit = NC(=O)NCCC[C@H](N)C(=O)O; Carboxymethyl = O=C(O)C*; Orn = NCCC[C@H](N)C(=O)O; Dab = NCC[C@H](N)C(=O)O; Dap = NC[C@H](N)C(=O)O

For the assay, the target named is T1, human PD-1 / PD-L1-Ig binding on Jurkat cell line over-expressing human PD-1 (Jurkat-PD-1) (Homo sapiens, UniProt Q15116).
T1 construct: expressed in transfected cells; host or cells: Jurkat
T1 sequence (Q15116 25-288): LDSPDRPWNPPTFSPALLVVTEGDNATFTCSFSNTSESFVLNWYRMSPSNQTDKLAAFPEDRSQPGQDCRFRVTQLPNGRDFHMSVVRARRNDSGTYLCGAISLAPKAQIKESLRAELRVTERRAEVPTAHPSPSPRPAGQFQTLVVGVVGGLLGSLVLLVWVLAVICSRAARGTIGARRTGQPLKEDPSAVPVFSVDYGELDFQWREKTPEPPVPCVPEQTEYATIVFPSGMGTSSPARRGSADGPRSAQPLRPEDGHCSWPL
Kind of assay: Jurkat-PD-1 Cell Binding High-Content Screening Assay (CBA). Format: cell-based. The settings on record: Jurkat-PD-1 cells, PE-labeled PD-L1-Ig 20 nM final; read-out: Jurkat HPD1_PDL1 IC50. Summed up: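 Jurkat cells over-expressing human PD-1, in DMEM/10% FCS, pre-incubated with compound 2 h at 37° C. PE-labeled human PD-L1-Ig (20 nM final) added for 1 h; cells fixed in paraformaldehyde with Hoechst 33342 nuclear stain, washed, and bound fluorescence quantified by high-content imaging.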
Broadly, the IC50 is the concentration needed to halve the response being measured. For the molecule `CC(C)C[C@@H]1NC(=O)[C@H](CCN)NC(=O)[C@@H](CC(C)C)NC(=O)[C@H](CCCN)NC(=O)[C@H](CCCNC(=N)N)NC(=O)[C@H](Cc2ccc(-c3ccccc3)cc2)NC(=O)[C@H](C(C)C)NC(=O)[C@H](Cc2c[nH]c3ccccc23)NC(=O)[C@H](CC(=O)O)NC(=O)[C@H](Cc2ccc(C(=O)O)cc2)NC(=O)[C@H](Cc2ccc(OCC(=O)O)cc2)NC(=O)CSC[C@@H](C(=O)N[C@@H](C)C(N)=O)NC(=O)[C@H]([C@@H](C)O)NC(=O)[C@H](C(C)C)NC1=O` [Compound 1243] ({CH2CO}-Y(Carboxymethyl)[Phe(4-COOH)]DWV[Bip]R[Orn][dL][Dab]LVTCA-NH2; thioether N-14), the half-maximal inhibitory concentration (IC50) was determined as 42.9 nM. In the case of `CC(C)C[C@@H]1NC(=O)[C@H](CCN)NC(=O)[C@@H](CC(C)C)NC(=O)[C@H](CCCN)NC(=O)[C@H](CCCNC(=N)N)NC(=O)[C@H](Cc2ccc(-c3ccccc3)cc2)NC(=O)[C@H](C(C)C)NC(=O)[C@H](Cc2c[nH]c3ccccc23)NC(=O)[C@H](CC(=O)O)NC(=O)[C@H](Cc2ccncc2)NC(=O)[C@H](CN)NC(=O)CSC[C@@H](C(=O)N[C@@H](C)C(N)=O)NC(=O)[C@H]([C@@H](C)O)NC(=O)[C@H](C(C)C)NC1=O` [Compound 1244] ({CH2CO}-[Dap][4Pal]DWV[Bip]R[Orn][dL][Dab]LVTCA-NH2; thioether N-14) it was 22.3 nM. In the case of `CC(C)C[C@@H]1NC(=O)[C@H](CCN)NC(=O)[C@@H](CC(C)C)NC(=O)[C@H](CCCN)NC(=O)[C@H](C(C)C)NC(=O)[C@H](Cc2ccc(-c3ccccc3)cc2)NC(=O)[C@H](C(C)C)NC(=O)[C@H](Cc2c[nH]c3ccccc23)NC(=O)[C@H](CC(=O)O)NC(=O)[C@H](Cc2ccc(OCC(=O)O)cc2)NC(=O)[C@H](Cc2ccc(OCC(=O)O)cc2)NC(=O)CSC[C@@H](C(=O)N[C@@H](C)C(N)=O)NC(=O)[C@H]([C@@H](C)O)NC(=O)[C@H](C(C)C)NC1=O` [Compound 1245] ({CH2CO}-Y(Carboxymethyl)Y(Carboxymethyl)DWV[Bip]V[Orn][dL][Dab]LVTCA-NH2; thioether N-14) it was 20.8 nM; in that of `CC(C)C[C@@H]1NC(=O)[C@H](CCN)NC(=O)[C@@H](CC(C)C)NC(=O)[C@H](CCCN)NC(=O)[C@H](Cc2ccc(-c3ccccc3)cc2)NC(=O)[C@H](Cc2ccc(-c3ccccc3)cc2)NC(=O)[C@H](C(C)C)NC(=O)[C@H](Cc2c[nH]c3ccccc23)NC(=O)[C@H](CC(=O)O)NC(=O)[C@H](Cc2ccc(OCC(=O)O)cc2)NC(=O)[C@H](Cc2ccc(OCC(=O)O)cc2)NC(=O)CSC[C@@H](C(=O)N[C@@H](C)C(N)=O)NC(=O)[C@H]([C@@H](C)O)NC(=O)[C@H](C(C)C)NC1=O` [Compound 1246] ({CH2CO}-Y(Carboxymethyl)Y(Carboxymethyl)DWV[Bip][Bip][Orn][dL][Dab]LVTCA-NH2; thioether N-14), 84.4 nM; in that of `CC(C)C[C@@H]1NC(=O)[C@H](CCN)NC(=O)[C@@H](CC(C)C)NC(=O)[C@H](CCCN)NC(=O)[C@H](CCCNC(N)=O)NC(=O)[C@H](Cc2ccc(-c3ccccc3)cc2)NC(=O)[C@H](C(C)C)NC(=O)[C@H](Cc2c[nH]c3ccccc23)NC(=O)[C@H](CC(=O)O)NC(=O)[C@H](Cc2ccc(OCC(=O)O)cc2)NC(=O)[C@H](Cc2ccc(OCC(=O)O)cc2)NC(=O)CSC[C@@H](C(=O)N[C@@H](C)C(N)=O)NC(=O)[C@H]([C@@H](C)O)NC(=O)[C@H](C(C)C)NC1=O` [Compound 1247] ({CH2CO}-Y(Carboxymethyl)Y(Carboxymethyl)DWV[Bip][Cit][Orn][dL][Dab]LVTCA-NH2; thioether N-14), 19.7 nM. In the case of `CC(C)C[C@@H]1NC(=O)[C@H](CCN)NC(=O)[C@@H](CC(C)C)NC(=O)[C@H](CCCN)NC(=O)[C@H](C(C)C)NC(=O)[C@H](Cc2ccc(-c3ccccc3)cc2)NC(=O)[C@H](C(C)C)NC(=O)[C@H](Cc2c[nH]c3ccccc23)NC(=O)[C@H](CC(=O)O)NC(=O)[C@H](Cc2ccc(C(=O)O)cc2)NC(=O)[C@H](Cc2ccc(OCC(=O)O)cc2)NC(=O)CSC[C@@H](C(=O)N[C@@H](C)C(N)=O)NC(=O)[C@H]([C@@H](C)O)NC(=O)[C@H](C(C)C)NC1=O` [Compound 1248] ({CH2CO}-Y(Carboxymethyl)[Phe(4-COOH)]DWV[Bip]V[Orn][dL][Dab]LVTCA-NH2; thioether N-14), the IC50 was 12.4 nM. `CC[C@H](C)[C@@H]1NC(=O)[C@H](Cc2ccc(-c3ccccc3)cc2)NC(=O)[C@H](C(C)C)NC(=O)[C@H](Cc2cccc(C)c2)NC(=O)[C@H](CC(=O)O)NC(=O)[C@H](Cc2ccc(C(=O)O)cc2)NC(=O)[C@H](Cc2ccc(OCC(=O)O)cc2)NC(=O)CSC[C@@H](C(=O)N[C@@H](C)C(N)=O)NC(=O)[C@H]([C@@H](C)O)NC(=O)[C@H](C(C)C)NC(=O)[C@H](CC(C)C)NC(=O)[C@H](CCN)NC(=O)[C@@H](CC(C)C)NC(=O)[C@H](CCCN)NC1=O` [Compound 1249] ({CH2CO}-Y(Carboxymethyl)[Phe(4-COOH)]D[Phe(3-Me)]V[Bip]I[Orn][dL][Dab]LVTCA-NH2; thioether N-14): the IC50 was determined as 4.6 nM.

With `CC[C@H](C)[C@@H]1NC(=O)[C@H](Cc2ccc(-c3ccccc3)cc2)NC(=O)[C@H](C(C)C)NC(=O)[C@H](Cc2c[nH]c3ccccc23)NC(=O)[C@H](CC(=O)O)NC(=O)[C@H](Cc2ccc(C(=O)O)cc2)NC(=O)[C@H](Cc2ccc(OCC(=O)O)cc2)NC(=O)CSC[C@@H](C(=O)N[C@@H](C)C(N)=O)NC(=O)[C@H]([C@@H](C)O)NC(=O)[C@H](C(C)C)NC(=O)[C@H](CC(C)C)NC(=O)[C@H](CCN)NC(=O)[C@@H](CC(C)C)NC(=O)[C@H](CCCN)NC1=O` [Compound 1250] ({CH2CO}-Y(Carboxymethyl)[Phe(4-COOH)]DWV[Bip]I[Orn][dL][Dab]LVTCA-NH2; thioether N-14), the IC50 was found to be 6.9 nM. In the case of `Cc1cccc(C[C@@H]2NC(=O)[C@H](CC(=O)O)NC(=O)[C@H](Cc3ccc(C(=O)O)cc3)NC(=O)[C@H](Cc3ccc(OCC(=O)O)cc3)NC(=O)CSC[C@@H](C(=O)N[C@@H](C)C(N)=O)NC(=O)[C@H]([C@@H](C)O)NC(=O)[C@H](C(C)C)NC(=O)[C@H](CC(C)C)NC(=O)[C@H](CCN)NC(=O)[C@@H](CC(C)C)NC(=O)[C@H](CCCN)NC(=O)[C@H](CCCNC(N)=O)NC(=O)[C@H](Cc3ccc(-c4ccccc4)cc3)NC(=O)[C@H](C(C)C)NC2=O)c1` [Compound 1251] ({CH2CO}-Y(Carboxymethyl)[Phe(4-COOH)]D[Phe(3-Me)]V[Bip][Cit][Orn][dL][Dab]LVTCA-NH2; thioether N-14) it was 7.9 nM.

In the case of `CC(C)C[C@@H]1NC(=O)[C@H](CCN)NC(=O)[C@@H](CC(C)C)NC(=O)[C@H](CCCN)NC(=O)[C@H](CCCNC(N)=O)NC(=O)[C@H](Cc2ccc(-c3ccccc3)cc2)NC(=O)[C@H](C(C)C)NC(=O)[C@H](Cc2c[nH]c3ccccc23)NC(=O)[C@H](CC(=O)O)NC(=O)[C@H](Cc2ccc(C(=O)O)cc2)NC(=O)[C@H](Cc2ccc(OCC(=O)O)cc2)NC(=O)CSC[C@@H](C(=O)N[C@@H](C)C(N)=O)NC(=O)[C@H]([C@@H](C)O)NC(=O)[C@H](C(C)C)NC1=O` [Compound 1252] ({CH2CO}-Y(Carboxymethyl)[Phe(4-COOH)]DWV[Bip][Cit][Orn][dL][Dab]LVTCA-NH2; thioether N-14), the IC50 is 21.5 nM.

In the case of `Cc1cccc(C[C@@H]2NC(=O)[C@H](CC(=O)O)NC(=O)[C@H](CCc3ccncc3)NC(=O)[C@H](CN)NC(=O)CSC[C@@H](C(=O)N[C@@H](C)C(N)=O)NC(=O)[C@H]([C@@H](C)O)NC(=O)[C@H](C(C)C)NC(=O)[C@H](CC(C)C)NC(=O)[C@H](CCN)NC(=O)[C@@H](CC(C)C)NC(=O)[C@H](CCCN)NC(=O)[C@H](C(C)C)NC(=O)[C@H](Cc3ccc(-c4ccccc4)cc3)NC(=O)[C@H](C(C)C)NC2=O)c1` [Compound 1253] ({CH2CO}-[Dap][h4Pal]D[Phe(3-Me)]V[Bip]V[Orn][dL][Dab]LVTCA-NH2; thioether N-14), the IC50 was determined as 6.8 nM.

For the molecule `CC(C)C[C@@H]1NC(=O)[C@H](Cc2c[nH]c3ccccc23)NC(=O)[C@H](CC(=O)O)NC(=O)[C@H](Cc2ccc(C(=O)O)cc2)NC(=O)[C@H](Cc2ccc(OCC(=O)O)cc2)NC(=O)CSC[C@@H](C(=O)NCC(N)=O)NC(=O)[C@H](CO)NC(=O)[C@H](C(C)C)NC(=O)[C@H](CC(C)C)NC(=O)[C@H](CCN)NC(=O)[C@@H](CC(C)C)NC(=O)[C@H](CCCN)NC(=O)[C@H](C(C)C)NC(=O)[C@H](Cc2ccc(-c3ccccc3)cc2)NC1=O` [Compound 1254] ({CH2CO}-Y(Carboxymethyl)[Phe(4-COOH)]DWL[Bip]V[Orn][dL][Dab]LVSCG-NH2; thioether N-14), the half-maximal inhibitory concentration (IC50) was found to be 7.4 nM.

On to `CC(C)C[C@@H]1NC(=O)[C@H](Cc2c[nH]c3ccccc23)NC(=O)[C@H](CC(=O)O)NC(=O)[C@H](Cc2ccc(CCC(=O)O)cc2)NC(=O)[C@H](Cc2ccc(OCC(=O)O)cc2)NC(=O)CSC[C@@H](C(=O)NCC(N)=O)NC(=O)[C@H](CO)NC(=O)[C@H](C(C)C)NC(=O)[C@H](CC(C)C)NC(=O)[C@H](CCN)NC(=O)[C@@H](CC(C)C)NC(=O)[C@H](CCCN)NC(=O)[C@H](C(C)C)NC(=O)[C@H](Cc2ccc(-c3ccccc3)cc2)NC1=O` [Compound 1256] ({CH2CO}-Y(Carboxymethyl)[Phe(4-CH2CH2COOH)]DWL[Bip]V[Orn][dL][Dab]LVSCG-NH2; thioether N-14), for which the half-maximal inhibitory concentration (IC50) turned out to be 6.7 nM. `CC(C)C[C@@H]1NC(=O)[C@H](Cc2c[nH]c3ccccc23)NC(=O)[C@H](CC(=O)O)NC(=O)[C@H](Cc2ccc(OCC(=O)O)cc2)NC(=O)[C@H](CN)NC(=O)CSC[C@@H](C(=O)NCC(N)=O)NC(=O)[C@H](CO)NC(=O)[C@H](C(C)C)NC(=O)[C@H](CC(C)C)NC(=O)[C@H](CCN)NC(=O)[C@@H](CC(C)C)NC(=O)[C@H](CCCN)NC(=O)[C@H](C(C)C)NC(=O)[C@H](Cc2ccc(-c3ccccc3)cc2)NC1=O` [Compound 1257] ({CH2CO}-[Dap]Y(Carboxymethyl)DWL[Bip]V[Orn][dL][Dab]LVSCG-NH2; thioether N-14): the IC50 amounted to 5.6 nM.
